Counter-ions that a name gives are not always drawn. Like-named read-outs stand apart in the source and are kept apart here. Square brackets hold non-standard residues; d marks the D form. Peptide text beside a SMILES is read from it. * marks the point of attachment. Sta = CC(C)C[C@H](N)[C@@H](O)CC(=O)O; Isovaleryl = CC(C)CC(=O)*
Tests used:
HIV-1(IIIB) [1] = type: cell-based; conditions: for time post-infection at which activity is lost / time after virus infection that addition could be delayed without losing inhibitory activity: MT-4 cells; for time post-infection at which activity is lost: second TOA experiment, DS-8000 12.5 μM, AMD3100 625 nM; for time after virus infection that addition could be delayed without losing inhibitory activity: p24 ELISA at 31 h, AZT 1.9 μM, ritonavir 277 nM
Procedure: Two time-of-drug-addition (TOA) experiments were performed and adopted from previously reported methods. Briefly, MT-4 cells were infected with HIV-1(IIIB) at a multiplicity of infection of 0.5. Following a 1 hour adsorption period, cells were washed, distributed in a 96-well tray at 100,000 cells per 200 μl per well and incubated at 37°C.
For the first experiment, test compounds were added to the infected cell cultures at different time points (i.e. 0, 1, 2, 3, 4, 5, 6, 7, 8, 9, 24, and 25 h) after the start of infection.
In a second experiment, the resolution of the assay was increased by evaluating early time points in more detail. Therefore, the test compounds were added to the infected cell cultures at the following time points after the start of infection: 0, 15, 30, 45, 100 and 180 min; and 24 as well as 25 h.
Product added at time points 0, 15, 30 and 45 min was present at the start of the viral infection and washed away after 1 hour. After washing, fresh product was added to maintain viral suppression throughout the remaining of the experiment.
HIV-1 production was determined at 31 h post infection via a p24 ELISA (Perkin Elmer, Brussels, Belgium).

[2] = tested on: HuT-78/HIV-1 and Sup-T1 cells; test: cells; type: cell-based; conditions: read-out: IC50 inhibition of syncytia formation
Procedure: Persistently infected HuT-78/HIV-1 cells were thoroughly washed to eliminate free virions. Next, 1 x 10^5 HuT-78/HIV-1 cells were co-cultivated with 1 x 10^5 Sup-T1 cells in 96-well plates (200 μl/well) during 20 h at 37°C, in the presence or absence of a serial dilution of compound. Afterwards, the formation of syncytia was evaluated microscopically. The EC50 was defined as the compound concentration required to suppress syncytia formation by 50%.

HIV-1 protease [3] = target: T1, HIV-1 protease (Human immunodeficiency virus type 1 group M subtype B, UniProt P04585); test: p55 cleavage in virus particles from HuT-78/HIV-1 cells (Western blot); type: cell-based; conditions: 43 h, AZT 3.7 μM, ritonavir 2.8 μM, TE-10 1 and 20 μM
T1 construct: the virus-encoded protease; endogenous in cells; host or cells: persistently infected HuT-78/HIV-1(IIIB) cells and released virus particles
Procedure: In order to confirm the inhibitory effect of TE-10, an additional assay was performed to study the inhibition of the HIV-1 protease by TE-10. Therefore, 2 x 10^5 persistently infected HuT-78/HIV-1 cells were washed thoroughly and seeded in 48-well plates, in the presence or absence of compound. As reference compounds, the RT inhibitor AZT (3.7 μM) and the protease inhibitor ritonavir (2.8 μM) were used, as negative and positive controls, respectively. TE-10 was used at 1 μM and 20 μM. After 43 h of incubation at 37°C, virus-containing cell culture supernatants were harvested and the cells were removed by centrifugation (10 min at ± 900 x g). Then, virus was precipitated from the cell supernatant by centrifugation at ± 3.5 x 10^4 x g for at least 2 h. The viruses were resuspended in PBS and lysed with Triton-X100 (Sigma-Aldrich, Diegem, Belgium). These viral lysates were then subjected to SDS-PAGE and subsequent Western blotting to detect the presence of p24 and its precursor p55, using an anti-p24 antibody (AB9044; final concentration 2.4 μg/ml).

HIV-1 = test: Infectivity (TZM-bl) of virus particles produced by ACH-2 cells in presence of compound; type: cell-based; conditions: for carry-over control: residual compound as cause of decreased infectivity: compound added at 1/100 of concentration in viral growth culture
Procedure: To measure the infectivity of particles produced in the presence of the compounds, washed persistently HIV-1-infected ACH-2 cells (1 x 10^6 cells/ml) were cultured with 100 nM PMA in the presence of the indicated concentration of compounds. After 3 days, the p24 content of the clarified supernatant (see virus expression) was measured. The cell supernatant was then used for an infectivity test (see infectivity assay) without the further addition of any compound to the cultures. The final dilution of the ACH-2 supernatant in the infectivity test was 1:100. A control experiment was performed, in which virus particles produced without the addition of compound, were used for the infectivity test. Additionally, the same amount of compound that could have been carried over with the virus containing supernatant in the original experiment was added to the infectivity test (final concentration: 1/100 of the indicated amount in the viral growth culture).

HeLa cells = test: Cytostatic activity assay, HeLa cells; type: cell-based; conditions: Homo sapiens, 72 h, read-out: IC50 HeLa
Procedure: (§1) The cytostatic activity assay using transformed cell lines was also performed in 96-well microtiter plates. 5–7.5 x 10^4 human CD4^+ T-lymphocyte CEM or human cervix carcinoma HeLa cells and a given amount of the test compounds were added to each well. The cells were allowed to proliferate for 72 h (96 h for HeLa) at 37°C in a humidified CO2-controlled atmosphere. At the end of the incubation period, the cells were counted in a Coulter counter (type ZM, Coulter Electronics, Analis, Ghent, Belgium).

HIV-1(IIIB) [4] = test: Antiviral activity in PHA-stimulated PBMCs (p24 ELISA), HIV-1(IIIB); type: cell-based; conditions: Human immunodeficiency virus 1, IIIB, PBMC, read-out: EC50 HIV-1 (IIIB)
Procedure: (§2) To test the antiviral activity in fresh, PHA-stimulated PBMCs, an experiment was performed as previously described. Briefly, the cells were preincubated with HIV-1(IIIB), HIV-1(BaL) or HIV-1(HE) for 1 h at 37°C, using a viral load of 1000 x CCID50 per ml. Then, cell suspensions containing virus and 2 x 10^5 PBMCs were seeded in a 96-well microtiter plate and a serial dilution of compound was added, in a total volume of 200 μl. After 4 days, the cells were passaged and fresh culture medium, containing IL-2 and compound, was added. Three days later, cellular supernatants were harvested and viral replication in the presence of the compounds was quantified using a p24 enzyme-linked immunosorbent assay (ELISA) (Perkin Elmer, Brussels, Belgium). The half maximal effective concentration (EC50) was defined as the compound concentration that is required to block viral replication by 50%.

PHA-stimulated PBMCs = test: Toxicity in PHA-stimulated PBMCs (trypan blue cell counting); type: cell-based, human; conditions: Homo sapiens, PBMC, 168 h, read-out: IC50 PBMC
Procedure: A similar experiment was performed to study the toxicity of the compounds in fresh, PHA-stimulated, PBMCs. Mock-infected PBMCs (2 x 10^5 cells) were exposed to a serial dilution of compound, in a total volume of 200 μl. Cells were passaged after 4 days. Cell survival and proliferation was assessed at day 7 using trypan blue-based cell counting with the Countess Automated Cell Counter (Invitrogen, Ghent, Belgium). The IC50 was defined as the concentration of the compound that inhibited cell proliferation by 50%.

HIV-1(BaL) = test: Antiviral activity in PHA-stimulated PBMCs (p24 ELISA), HIV-1(BaL); type: cell-based; conditions: Human immunodeficiency virus 1, BAL, PBMC; for EC50: read-out: EC50 HIV-1 (BAL)
Procedure: as §2

HIV-2(ROD) = test: Inhibition of HIV-2(ROD)-induced giant cell formation in CEM cell cultures; type: cell-based; conditions: for Ratio IC50/EC50 HIV-2 (CEM): CEM cells; for EC50: Human immunodeficiency virus 2, CCRF-CEM, read-out: EC50 HIV-2 (ROD)
Procedure: (§3) To study the antiviral activity in transformed cells, CEM cells were suspended in fresh culture medium and infected with HIV-1(IIIB) or HIV-2(ROD) at 100 x CCID50 (cell culture infective dose 50%) per ml of cell suspension. Infected cell suspension (100 μl; 3 x 10^5 cells/ml) was transferred to a 96-well microplate, mixed with 100 μl of the appropriate dilutions of compounds, and further incubated at 37°C. After 4 days, giant cell formation was recorded microscopically and the number of giant cells was estimated microscopically as percentage of the number of giant cells present in the non-treated virus-infected cell cultures.

HIV-1(IIIB) [5] = test: microbe, parasite or virus in culture; type: cell-based; conditions: for Ratio IC50/EC50 HIV-1 (CEM): CEM cells; for EC50: Human immunodeficiency virus 1, IIIB, CCRF-CEM, read-out: EC50 HIV-1 (IIIB)
Procedure: as §3

CEM cells = test: Cytostatic activity assay, CEM cells; type: cell-based; conditions: Homo sapiens, CCRF-CEM, 72 h; inhibition of cell proliferation by 50%, three-day drug-exposed; mean ± SD
Procedure: as §1

HIV-1(HE) = test: Antiviral activity in PHA-stimulated PBMCs (p24 ELISA), HIV-1(HE); type: cell-based; conditions: Human immunodeficiency virus 1, PBMC, read-out: EC50 HIV-1 (HE)
Procedure: as §2

[6] = previously known structural properties ref 20-22; cited from earlier work
HIV-1 protease [7] = target: T1, HIV-1 protease; test: HIV-1 protease inhibition (SensoLyte 520 kit); type: biochemical; conditions: 25 μM
Procedure: The ability of the compounds to inhibit the activity of recombinant HIV-1 protease was determined by a SensoLyte 520 HIV-1 protease assay kit (AnaSpec Inc., Fremont, CA) according to the manufacturer’s instructions. Compounds (10 μl of a 250 μM, solution, giving a final concentration of 25 μM in the reaction mixture) and 40 μl HIV-1 protease (100 ng/well; AnaSpec Inc.) were added to a dark-bottom 96-well plate. Pepstatin A was included as an inhibitor control. The plate as well as the HIV-1 protease substrate solution (provided) were incubated for 15 minutes at 37°C and 50 μl protease substrate was added to all wells. The fluorescence was measured at Ex/Em = 490 nm/520 nm with a Varioskan Flash (Thermo Electron Corporation, Schwerte, Germany).

[8] = Human immunodeficiency virus 1, SUP-T1, 24 h

## c1cc(CN2CCCNCCNCCCNCC2)ccc1CN1CCCNCCNCCCNCC1 [AMD3100]
HIV-1(IIIB) [1]; 625 nM
  inhibition in time-of-addition assay: fully inhibitory
HIV-1(IIIB) [1]
  time post-infection at which activity is lost: 30 to 45 min
[2]; Human immunodeficiency virus 1, cocultures of HuT-78/HIV-1 and Sup-T1 cells, ~24 hours
  IC50: 9.3 ± 4.3 µM

## Cc1cn([C@H]2C[C@H](N=[N+]=[N-])[C@@H](CO)O2)c(=O)[nH]c1=O [AZT, 3’-azido-2’,3’-dideoxythymidine]
HIV-1 protease [3]
  p55 cleavage in viral particles (Western blot): allow efficient p55 cleavage
HIV-1(IIIB) [1]
  time after virus infection that addition could be delayed without losing inhibitory activity: at least 3 h

## CN(C)c1ccc([Te]CCCOc2ccccc2)cc1 [TE-14, N,N-dimethyl-4-aminophenyl 3-phenoxypropyl telluride]
HIV-1; ACH-2 cultures exposed to compound 3 days, supernatant 1:100 titrated on TZM-bl
  infectivity of virus particles produced in presence of compound (normalized for equal p24): substantially less infectious virus particles
HIV-1
  carry-over control: residual compound as cause of decreased infectivity: could not be explained by the presence of residual compound
HeLa cells
  IC50: 25 ± 4 µM
HIV-1(IIIB) [4]
  EC50: 4.9 ± 2.1 µM
PHA-stimulated PBMCs
  IC50: 9.9 ± 2.5 µM
HIV-1(BaL)
  EC50: 9.6 ± 10 µM
[2]; [8]
  IC50: > 250 µM
HIV-2(ROD)
  Ratio IC50/EC50 HIV-2 (CEM): 16
  EC50: 1.4 ± 0.56 µM
HIV-1(IIIB) [5]
  Ratio IC50/EC50 HIV-1 (CEM): 26
  EC50: 0.86 ± 0.21 µM
CEM cells
  IC50: 22 ± 2 µM
HIV-1(HE)
  EC50: 5.4 ± 3 µM
[6]
  Hydrophobicity: Hydrophobic

## CCCC[Te]CCCS(=O)(=O)O [TE-20, 3-(butyltelluro)propanesulfonic acid sodium salt]
HIV-1
  carry-over control: residual compound as cause of decreased infectivity: could not be explained by the presence of residual compound
HeLa cells
  IC50: 101 ± 3 µM
HIV-1(IIIB) [4]
  EC50: 18 ± 12 µM
PHA-stimulated PBMCs
  IC50: 75 ± 53 µM
HIV-1(BaL)
  EC50: ≥ 25 µM
HIV-1(BaL); read-out: inhibition at indicated concentration
  inhibition at 25 µM: 30 to 50%
[2]; [8]
  IC50: > 250 µM
HIV-2(ROD)
  Ratio IC50/EC50 HIV-2 (CEM): 36
  EC50: 2.9 ± 1.3 µM
HIV-1(IIIB) [5]
  Ratio IC50/EC50 HIV-1 (CEM): 38
  EC50: 2.7 ± 2.6 µM
CEM cells
  IC50: 103 ± 27 µM
HIV-1(HE)
  EC50: 11 ± 9 µM
[6]
  Hydrophobicity: Hydrophilic

## CC(C)CC(=O)N[C@H](C(=O)N[C@H](C(=O)N[C@@H](CC(C)C)[C@@H](O)CC(=O)N[C@@H](C)C(=O)N[C@@H](CC(C)C)[C@@H](O)CC(=O)O)C(C)C)C(C)C [pepstatin A, reference compound] (Isovaleryl-VV[Sta]A[Sta]-OH)
HIV-1 protease [7]
  inhibition of protease activity: pronounced inhibitory activity

## CC(C)c1nc(CN(C)C(=O)N[C@H](C(=O)N[C@@H](Cc2ccccc2)C[C@H](O)[C@H](Cc2ccccc2)NC(=O)OCc2cncs2)C(C)C)cs1 [ritonavir]
HIV-1 protease [3]
  p55 cleavage in viral particles (Western blot): blocks this cleavage
HIV-1(IIIB) [1]
  time after virus infection that addition could be delayed without losing inhibitory activity: ≥ 8 h

## dextran sulphate [DS-8000]
HIV-1(IIIB) [1]
  time post-infection at which activity is lost: 30 to 45 min

## enfuvirtide
[2]; cocultures of HuT-78/HIV-1 and Sup-T1 cells, ~24 hours
  IC50: 0.275 ± 0.15 µM

From paper PMC4729491, “The Cellular Thioredoxin-1/Thioredoxin Reductase-1 Driven Oxidoreduction Represents a Chemotherapeutic Target for HIV-1 Entry Inhibition” (PLoS ONE, 2016)
